In US20260209274A1, “COMPOSITION FOR SKIN REPIGMENTATION” (BELLA AURORA LABS, S.A., priority 2022, published 2026):
Non-standard residues stand in square brackets, D forms with d. No end group written: not given here. Nle = CCCC[C@H](N)C(=O)O

What was measured:
[1] = system: reconstructed human pigmented epidermis (RHPE); test: In vitro repigmentation assay in reconstructed human pigmented epidermis (RHPE), without irradiation; format: cell-based; conditions: A 3.0 ppm
Protocol: (§1) For assessing the repigmentation effect, a reconstructed epidermis model was used, namely, based on adding melanocytes and keratinocytes on a polycarbonate filter (SkinEthic® RHPE, available from the company Episkin).
(§2) Sample tissues were treated with the test products for 6 days (from day1 to day6). After each dosing, the samples were incubated at 37° C., and melanin extraction was performed after 6 days of treatment (at day7). Untreated samples were also included in the assay as controls. An evaluation of cell viability was also performed.
(§3) After treatment, melanin extraction was performed by plunging each sample filter into 800 μl of Solvable® (Perkin Elmer) and heating at 63° C. overnight. The optical density of the supernatants was measured on 300 μl extract at 405 nm using synthetic melanin as reference. 6 samples were used for each treatment and the mean value was calculated.
(§4) For each of the treatments the increase in the amount of melanin generated versus the control (0) was calculated. For analysing a possible synergistic effect, the experimental increase in melanin in the combined treatment (A+B) was compared to the theoretical increase to be expected if a simple additive effect were obtained.
Another in vitro repigmentation assay was performed using the same reconstructed epidermis model and the same procedure as disclosed in Example 1. In this case, the assay was performed without irradiation.
In this example, the same reconstructed epidermis model was used, namely, based on adding melanocytes and keratinocytes on a polycarbonate filter (SkinEthic® RHPE, available from the company Episkin), using the same protocol disclosed in Example 1.

[2] = system: reconstructed human pigmented epidermis (RHPE); test: In vitro repigmentation assay in reconstructed human pigmented epidermis (RHPE), samples irradiated; format: cell-based; conditions: Example 1; irradiated with 150 J/m^2 at 300 W/m^2 on day2, day3, day4; A 3.0 ppm, B 0.4 ppm, A + B 1.5 ppm + 0.2 ppm (7.5:1)
Protocol: as §1, §2, §3
Another analogous assay, with the same treatments, was performed but simultaneously irradiating the samples. In this second assay, the samples were irradiated with 150 J/m^2 at 300 W/m^2 three times on consecutive days (on day2, day3, and day4 of the assay).
as §4

[3] = Example 4, D 1.2 ppm, A + D 1.5 ppm + 0.6 ppm (2.5:1)
[4] = Example 4, D 1.2 ppm, A + D 1.5 ppm + 0.6 ppm (2.5:1) in culture medium
[5] = Example 1, without irradiation, 6 days of treatment, extraction at day7, B 0.4 ppm, A + B 1.5 ppm + 0.2 ppm (7.5:1) in culture medium
[6] = Example 1, without irradiation, 6 days of treatment, B 0.4 ppm, A + B 1.5 ppm + 0.2 ppm (7.5:1)
[7] = Example 3, C 0.1 ppm, A + C 1.5 ppm + 0.05 ppm (30:1)
[8] = Example 3, C 0.1 ppm, A + C 1.5 ppm + 0.05 ppm (30:1) in culture medium

| Substance | Melanin increase vs. control [1, 3] | Melanin [1, 4] | Melanin [2] | Melanin increase vs. control [2] | Melanin [1, 5] | Melanin increase vs. control [1, 6] | Melanin increase vs. control [1, 7] | Melanin [1, 8] |
| --- | --- | --- | --- | --- | --- | --- | --- | --- |
| palmitoyl-prolil-proline [D] | 0.48 µg | 32.49 µg | – | – | – | – | – | – |
| Nle-Ala-His-DPhe-Arg-Trp (Ac-[Nle]AH[dF]RW) [B] | – | – | 38.07 µg | 3.35 µg | 37.31 µg | 4.21 µg | – | – |
| His-DPhe-Arg-Trp (H[dF]RW) [C] | – | – | – | – | – | – | 1.93 µg | 38.45 µg |
| FHWRYPLPLPGQ (MIA inhibitor) | 1.33 µg | 33.34 µg | 36.07 µg | 1.35 µg | 34.39 µg | 1.29 µg | 0.11 µg | 36.63 µg |
